These results are taken from patent US11547677B2, “Transmucosal delivery system for idebenone” (LTS LOHMANN THERAPIE-SYSTEME AG, priority 2017, dated 2023).

Structures can show the parent of a compound that is named as a salt.

Data set [1] in a line: Saturation concentration of idebenone in the inner, hydrophobic, phase (HPLC of supernatant). The settings on record: in composition of the 2nd table (vitamin E, Polysorbate 80, methyl salicylate, eucalyptol, tributyl citrate, Brij S2). The data set is classed as physicochemical. As for the experimental part: Idebenone is added in excess to the inner, hydrophobic, phase, so that even after relatively long stirring solid dregs of active ingredient are still present. Then the dregs are removed by centrifuging. The resulting supernatant contains idebenone in its saturation concentration. This is determined by analysis for example by means of HPLC. The saturation concentration of idebenone for an exemplified composition according to the invention was determined as follows. [table]

The conditions of data set [2]: oral administration; cited from earlier work.
The conditions of data set [3]: n-octanol/water; cited from earlier work.

For `COC1=C(OC)C(=O)C(CCCCCCCCCCO)=C(C)C1=O` [idebenone, 2-(10-hydroxydecyl)-5,6-dimethoxy-3-methyl-cyclohexa-2,5-diene-1,4-dione], the values for the saturation concentration in data set [1] (4° C.) and in data set [1] (room temperature) were 103 g/L and 145 g/L, respectively. In data set [2], the “idebenone metabolised in the first-pass metabolism” value was “more than 98%”.
In the case of `CC12CCC(CC1)C(C)(C)O2` [EUC, eucalyptol], in data set [3], the LogP entry is “LogP = 2.8”.
Regarding `CCCCOC(=O)CC(O)(CC(=O)OCCCC)C(=O)OCCCC` [TBC, tributyl citrate], the LogP entry in data set [3] is recorded as “LogP = 4.7”.
Consider `COC(=O)c1ccccc1O` [MS, methyl salicylate], for which the LogP entry in data set [3] is given as “LogP = 2.24”.
